Data reported in patent US7851510B2, “Gossypol derivatives, production method thereof and uses of same” (Centre National de la Recherche Scientifique (C.N.R.S.), priority 2004, dated 2010).

Test system: KB tumour cell line
Experiment: Cytotoxicity vis-à-vis the KB tumour cell line
Format: cell-based
Details: Homo sapiens
Protocol: The cytotoxicity of the compound vis-à-vis the KB tumour cell line was measured as is described in Dao et al. (2003) Bioorg. Med. Chem. 11:2001-2006.

For `CC1=C(C2=C(C)C(=O)c3c(c(CSc4c(F)c(F)cc(F)c4F)c(O)c(O)c3C(C)C)C2=O)C(=O)c2c(CSc3c(F)c(F)cc(F)c3F)c(O)c(O)c(C(C)C)c2C1=O` [(11), 6,7,6′,7′-tetrahydroxy-5,5′-diisopropyl-8,8′-bis-(2,3,5,6-tetrafluoro-phenylsulphanylmethyl)-3,3′-dimethyl-[2,2′]binaphthalenyl-1,4,1′,4′-tetraone], which IC50 is on record?
The IC50 was 8.5 µM.

For `CC1=C(C2=C(C)C(=O)c3c(c(CSc4ccccc4)c(O)c(O)c3C(C)C)C2=O)C(=O)c2c(CSc3ccccc3)c(O)c(O)c(C(C)C)c2C1=O` [(7), 6,7,6′,7′-tetrahydroxy-5,5′-diisopropyl-3,3′-dimethyl-8,8′-bis-phenylsulphanylmethyl-[2,2′]binaphthalenyl-1,4,1′,4′-tetraone], which IC50 is on record?
The IC50 was 4 µM.

Which IC50 does the source give for `CC1=C(C2=C(C)C(=O)c3c(c(CO)c(O)c(O)c3C(C)C)C2=O)C(=O)c2c(CO)c(O)c(O)c(C(C)C)c2C1=O` [(5), 6,7,6′,7′-tetrahydroxy-8,8′-bis-hydroxymethyl-5,5′-diisopropyl-3,3′-dimethyl-[2,2′]binaphthalenyl-1,4,1′,4′-tetraone] here?
The IC50 was 1 µM.

How did the IC50 turn out when `CC1=C(C2=C(C)C(=O)c3c(c(CSc4ccc(Cl)cc4)c(O)c(O)c3C(C)C)C2=O)C(=O)c2c(CSc3ccc(Cl)cc3)c(O)c(O)c(C(C)C)c2C1=O` [(10), 6,7,6′,7′-tetrahydroxy-5,5′-diisopropyl-8,8′-bis-(4-chloro-phenylsulphanylmethyl)-3,3′-dimethyl-[2,2′]binaphthalenyl-1,4,1′,4′-tetraone] was run?
The IC50 was 3 µM.

For `COc1ccc(SCc2c(O)c(O)c(C(C)C)c3c2C(=O)C(C2=C(C)C(=O)c4c(c(CSc5ccc(OC)cc5)c(O)c(O)c4C(C)C)C2=O)=C(C)C3=O)cc1` [(9), 6,7,6′,7′-tetrahydroxy-5,5′-diisopropyl-8,8′-bis-(4-methoxy-phenylsulphanylmethyl)-3,3′-dimethyl-[2,2′]binaphthalenyl-1,4,1′,4′-tetraone], which IC50 is on record?
The IC50 was 6.5 µM.

`CC1=C(C2=C(C)C(=O)c3c(c(CSc4ccc(C)cc4)c(O)c(O)c3C(C)C)C2=O)C(=O)c2c(CSc3ccc(C)cc3)c(O)c(O)c(C(C)C)c2C1=O` [(8), 6,7,6′,7′-tetrahydroxy-5,5′-diisopropyl-3,3′-dimethyl-8,8′-bis-p-tolylsulphanylmethyl-[2,2′]binaphthalenyl-1,4,1′,4′-tetraone] was tested. Which IC50 did it give?
Its IC50 is 6.5 µM.
